In patent US20230322724A1, “HETEROCYCLIC COMPOUNDS AS CBP/EP300 BROMODOMAIN INHIBITORS” (AURIGENE ONCOLOGY LIMITED, priority 2020, published 2023):

Target: T1, recombinant CREBBP bromodomain (Homo sapiens, UniProt Q92793)
T1 construct: recombinant CREBBP bromodomain obtained from BPS Bioscience, USA; purchased BPS Bioscience, USA
Assay: CBP TR-FRET displacement assay
Type: binding
Details: for IC50: dose-response, read-out: IC50 (group A, B, C)
Experimental: The potency of compounds to inhibit CREBBP enzyme was tested in a TR-FRET displacement assay using recombinant CREBBP bromodomain obtained from BPS Bioscience, USA. The assay buffer was 50 mM HEPES (pH 7.5), 50 mM NaCl, 0.008% Brij 35, 0.01% BSA, 1 mM TCEP. 50 nM of CREBBP & 500 nM of Biotinylated ligand was incubated at room temperature for 30 minutes, the reaction was initiated by adding pre-incubated enzyme ligand mixture to the test compounds. After 60 min incubation, the reaction was stopped by the addition of stop mix containing 1 nM of LANCE Europium-anti-6xHis antibody (Perkin Elmer, USA) and 40 nM of Sure Light Allophycocyanin-Streptavidin (Perkin Elmer, USA). Fluorescence emission of the samples at 665 and 615 nm were measured at an excitation of 340 nm and their ratio was plotted against the compound concentrations to generate dose-response curve. The percent inhibition of the test compounds is calculated using the ratio of enzyme activity controls.
elected compounds of the present invention were screened in the above-mentioned assay procedures and IC50 values were determined by fitting the dose-response data to sigmoidal curve fitting equation using Graph pad prism software V7.

T1 sequence (Q92793 1085-1192 limits assumed): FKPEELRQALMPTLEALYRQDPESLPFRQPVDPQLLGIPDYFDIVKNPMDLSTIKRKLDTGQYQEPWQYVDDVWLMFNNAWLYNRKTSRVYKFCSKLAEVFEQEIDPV

| Compound | IC50 [nM] | inhibition at 10 µM (compound at 10 μM) [%] |
| --- | --- | --- |
| Cc1cc2c(N3CCN(C4CCOCC4)c4ccccc43)cccc2n(C)c1=O [Example 78, 1,3-Dimethyl-5-(4-(tetrahydro-2H-pyran-4-yl)-3,4-dihydroquinoxalin-1(2H)-yl)quinolin-2(1H)-one] | – | 25 |
| CC(=O)N1CCN(c2cc3c(cc2C(F)F)N(c2cc(N4CCOCC4)cc4c2cc(C)c(=O)n4C)CCC3)CC1 [Example 174, 6-(4-Acetylpiperazin-1-yl)-7-(difluoromethyl)-1′,3′-dimethyl-7′-morpholino-3,4-dihydro-2H-[1,5′-biquinolin]-2′(1′H)-one] | 51 to 100 | – |
| CNC(=O)C1CCN(c2ccc3c(c2)CCCN3c2cc(OC)cc3c2cc(C)c(=O)n3C)CC1 [Example 187] | > 10 | – |
| COc1cc2c(cc1-c1cnn(C)c1)C(C)CCN2c1nc(C2CCOCC2)cc2c1cc(C)c(=O)n2C (stereo not shown) [Example 239] | 51 to 100 | – |
| COc1cc(N2CCN(C(C)=O)c3cc(-c4cnn(C)c4)c(C#N)cc32)c2cc(C)c(=O)n(C)c2c1 [Example 63, 1-acetyl-4-(7-methoxy-1,3-dimethyl-2-oxo-1,2-dihydroquinolin-5-yl)-7-(1-methyl-1H-pyrazol-4-yl)-1,2,3,4-tetrahydroquinoxaline-6-carbonitrile] | 51 to 100 | – |
| COc1cc(N2CCc3cccc(-c4cnn(C)c4)c3C2)c2cc(C)c(=O)n(C)c2c1 [Example 189] | > 10 | – |
| Cc1cc2c(N3CCN(C)c4cc(S(=O)(=O)C(C)C)ncc43)cc(N3CCOCC3)cc2n(C)c1=O [Example 141] | 51 to 100 | – |
| COc1cc(N2CCN(C)c3cc(N4CC(C)NC(C)C4)c(C#N)cc32)c2cc(C)c(=O)n(C)c2c1 (stereo not shown) [Example 24] | > 10 | – |
| Cc1cc2c(N3CCN(C)c4cc(C5=CCN(C)CC5)ccc43)cccc2n(C)c1=O [Example 44] | > 10 | – |
| COc1cc(N2CCN(C)c3ccc(S(=O)(=O)N(C)C)cc32)c2cc(C)c(=O)n(C)c2c1 [Example 93, 4-(7-Methoxy-1,3-dimethyl-2-oxo-1,2-dihydroquinolin-5-yl)-N,N,1-trimethyl-1,2,3,4-tetrahydroquinoxaline-6-sulfonamide] | 51 to 100 | – |
| CNC(=O)c1ccc2c(c1)N(c1cc(OC)cc3c1cc(C)c(=O)n3C)CCN2C [Example 81] | > 10 | – |

Now from value to compound:

| IC50 [nM] | inhibition at 10 µM (compound at 10 μM) [%] | Compound |
| --- | --- | --- |
| < 50 | – | COc1cc(N2CCN(C)c3cc(-c4cnn(C)c4)c(F)cc32)c2cc(C)c(=O)n(C)c2c1 [Example 30] |
| < 50 | – | Cc1cc2c(N3CCN(C)c4cc(-c5cnn(C)c5)c(C#N)cc43)cc(N3CCOCC3)cc2n(C)c1=O [Example 47] |
| < 50 | – | COc1cc(N2CCN(C)c3ccc(-c4nn[nH]n4)cc32)c2cc(C)c(=O)n(C)c2c1 [Example 84, 7-Methoxy-1,3-dimethyl-5-(4-methyl-7-(2H-tetrazol-5-yl)-3,4-dihydroquinoxalin-1(2H)-yl)quinolin-2(1H)-one] |
| < 50 | – | COc1cc(N2CCN(C)c3cc(C4=CCCC4)c(S(=O)(=O)NC(C)=O)cc32)c2cc(C)c(=O)n(C)c2c1 [Example 110] |
| < 50 | – | CNC(=O)N1CCN(c2cc3c(cc2C#N)N(c2cc(OC)cc4c2cc(C)c(=O)n4C)CCN3C)CC1 [Example 28] |
| < 50 | – | COc1cc(N2CCN(C)c3cc(N4CCC(NC(C)=O)CC4)c(C#N)cc32)c2cc(C)c(=O)n(C)c2c1 [Example 56] |
| < 50 | – | Cc1cc2c(N3CCCc4cc(N5CCC(C)(N)CC5)c(C(F)F)cc43)nc(C3CCOCC3)cc2n(C)c1=O [Example 237] |
| < 50 | – | Cc1cc2c(N3CCCc4cc(-c5cnn(C)c5)ncc43)cc(N3CCOCC3)cc2n(C)c1=O [Example 169] |
| < 50 | – | Cc1cc2c(N3CCCc4cc(C5CCOC5)c(C(F)F)cc43)nc(N3CC[C@@H](O)C3)cc2n(C)c1=O (stereo partly shown) [Example 228] |
| < 50 | – | Cc1cc2c(N3CCN(C)c4ccc(C#N)cc43)cccc2[nH]c1=O [Example 115, 1-Methyl-4-(3-methyl-2-oxo-1,2-dihydroquinolin-5-yl)-1,2,3,4-tetrahydroquinoxaline-6-carbonitrile] |
| < 50 | – | CC(=O)NS(=O)(=O)c1ccc2c(c1)N(c1cc(N3CC[C@@H](O)C3)cc3c1cc(C)c(=O)n3C)CCN2C [Example 105] |
